Experiment [1] has as its system human liver mannosidases. The settings on record: literature; cited from earlier work.
The target of experiment [2] is T1, Lysosomal α-mannosidase (Homo sapiens, UniProt O00754).
T1 sequence (O00754 50-1011): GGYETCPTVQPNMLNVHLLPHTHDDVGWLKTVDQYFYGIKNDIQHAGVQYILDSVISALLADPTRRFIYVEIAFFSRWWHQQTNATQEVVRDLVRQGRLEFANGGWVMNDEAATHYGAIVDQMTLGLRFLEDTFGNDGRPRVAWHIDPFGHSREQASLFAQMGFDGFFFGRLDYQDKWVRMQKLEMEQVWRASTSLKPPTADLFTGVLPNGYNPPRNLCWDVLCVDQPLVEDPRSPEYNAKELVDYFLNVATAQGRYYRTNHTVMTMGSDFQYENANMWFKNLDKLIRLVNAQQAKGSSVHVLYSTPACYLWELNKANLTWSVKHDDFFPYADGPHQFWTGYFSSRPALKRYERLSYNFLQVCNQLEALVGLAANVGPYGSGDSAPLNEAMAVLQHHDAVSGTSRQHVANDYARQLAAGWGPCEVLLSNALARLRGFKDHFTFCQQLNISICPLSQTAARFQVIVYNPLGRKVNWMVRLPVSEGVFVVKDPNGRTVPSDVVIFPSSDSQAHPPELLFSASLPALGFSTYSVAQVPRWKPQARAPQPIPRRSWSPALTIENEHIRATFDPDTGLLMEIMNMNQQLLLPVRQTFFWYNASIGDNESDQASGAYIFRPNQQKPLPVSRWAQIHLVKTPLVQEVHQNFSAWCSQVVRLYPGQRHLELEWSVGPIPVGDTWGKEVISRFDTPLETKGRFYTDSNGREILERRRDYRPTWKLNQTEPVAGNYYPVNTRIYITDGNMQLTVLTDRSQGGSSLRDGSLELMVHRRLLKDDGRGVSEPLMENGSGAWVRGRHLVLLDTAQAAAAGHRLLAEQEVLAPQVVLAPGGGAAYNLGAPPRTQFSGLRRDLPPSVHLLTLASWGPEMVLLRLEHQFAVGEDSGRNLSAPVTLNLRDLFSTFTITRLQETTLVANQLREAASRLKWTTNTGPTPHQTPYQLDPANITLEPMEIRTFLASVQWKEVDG
As to the kind of experiment: Human liver glycosidase assay, lysosomal α-mannosidase. The settings on record: for inhibition at 1000 µM: 1 mM compound, 4-methylumbelliferyl-glycoside substrate. Set-up: human liver extracts; from tissue; host or cells: human liver extracts. It counts as biochemical. The method, then:
(§1) Melting points were recorded on a Kofler hot block. Proton nuclear magnetic resonance (δH) spectra were recorded on Varian Gemini 200 (at 200 MHz), Bruker WH 300 (300 MHz), or Bruker AM 500 (500 MHz) spectrometers. Carbon nuclear magnetic resonance (δC) spectra were recorded on a Varian Gemini 200 (50 MHz) or a Bruker 250 (62.9 MHz) spectrometer. Multiplicities were assigned using DEPT sequence on the Gemini and by off resonance decoupling on the Bruker. Spectra run in D2 O were referenced to methanol as an internal standard. All chemical shifts are quoted on the δ-scale. Infrared spectra were recorded on a Perkin-Elmer 297, or on a Perkin-Elmer 781 spectrophotometer. Mass spectra were recorded on VG Micromass 30F, ZAB lF, Masslab 20-250 or Trio-1 GCMS (DB-5 column) spectrometers using desorption chemical ionization (NH3 DCI), electron impact (EI), chemical ionization (NH3 CI) and fast atom bombardment (FAB) techniques, as stated. […] Concentrations were given in g/100 ml. Hydrogenations were run under an atmosphere of hydrogen gas maintained by inflated balloon. Microanalyses were performed by the microanalysis service of the DysonPerrins laboratory, Oxford UK. Thin layer chromatography (t.l.c.) was carried out on aluminum sheets coated with 60F254 silica. Plates were developed using either 5% v/v concentrated sulphuric acid in methanol, 0.2% w/v cerium (IV) sulphate and 5% ammonium molybdate in 2M sulphuric acid and 0.5% ninhydrin in methanol. Flash chromatography was carried out using Sorbsil C60 40/60 silica. Ion-exchange chromatography was performed using Dowex 50W-X8 (H) and Sigma CG 400 (Cl) resins. The resins were washed with 2M hydrochloric acid and 2M sodium hydroxide solution, respectively, and subsequently with distilled water, prior to use. Solvents and commercially available reagents were dried and purified before use according to standard procedures; dichloromethane was refluxed over and distilled from calcium hydride, N,N-dimethylformamide was distilled under reduced pressure from calcium hydride, methanol was distilled from magnesium methoxide, pyridine was distilled from, and stored over, potassium hydroxide and tetrahydrofuran was distilled from a purple solution of sodium benzophenone ketyl immediately before use. Hexane was distilled at 68° C. before use to remove involatile fractions. 2,3-O-Isopropylidene-L-gulono-1,4-lactone (9) [H. Ogura et al., J. Oro. Chem. 37, 72 (1972); G. W. J. Fleet Tetrahedron 45, 319 (1989)]and 2,3-O-isopropylidene-D-gulono-1,4-lactone (15) [L. M. Lerner et al., J. Org. Chem. 33, 1780 (1968)]were prepared from D- and L-Chem. gulonolactones [purchased from the Sigma Chemical Company] as reported previously. See, e.g., Fleet, U.S. Pat. No. 4,861,892. Human liver glycosidases were assayed in the absence and presence [1 mM] of each of the compounds using the appropriate buffered 4-methylumbellifeeryl-glycosides as substrates, as described previously. [B. Winchest et al., Biochem. J. 265, 277 (1990)]. Naringinase was assayed using pnitrophenyl α-L-rhamnoside (1.75 mM) as substrates, according to Romero [C. Romero et al., Anal. Biochem. 149, 566 (1985)].
(§2) The enzymes included human liver glycosidases and naringinase. The latter enzyme is a readily available endo-L-rhamnosidase described by Romero et al., Anal. Biochem. 149, 566 (1985).

The target in experiment [3] is T2, Lysosomal α-fucosidase (Homo sapiens, UniProt P04066).
T2 construct: human liver extracts; from tissue; host or cells: human liver extracts
T2 sequence (P04066 32-466): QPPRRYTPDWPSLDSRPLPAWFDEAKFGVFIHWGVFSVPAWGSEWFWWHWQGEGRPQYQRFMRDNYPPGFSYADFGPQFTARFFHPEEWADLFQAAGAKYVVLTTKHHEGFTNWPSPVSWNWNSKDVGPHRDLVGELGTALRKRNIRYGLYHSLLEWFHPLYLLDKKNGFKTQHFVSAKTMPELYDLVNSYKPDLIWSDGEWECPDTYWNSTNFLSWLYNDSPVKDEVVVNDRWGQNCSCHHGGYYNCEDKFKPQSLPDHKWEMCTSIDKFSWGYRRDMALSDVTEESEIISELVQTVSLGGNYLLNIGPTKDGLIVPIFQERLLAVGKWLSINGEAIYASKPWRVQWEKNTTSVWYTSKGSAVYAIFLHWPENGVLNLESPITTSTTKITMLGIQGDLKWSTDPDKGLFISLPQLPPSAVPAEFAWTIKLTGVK
Description: Human liver glycosidase assay, lysosomal α-fucosidase. It counts as biochemical. The settings on record: read-out: Inhibition (%) at 1 mM, lysosomal α-fucosidase. The method, then:
as §1, §2

The test system of experiment [4] is α-arabinosidase. Description: Human liver glycosidase assay, α-arabinosidase. The class given is biochemical. The note with it: 1 mM compound. The protocol:
(§3) Melting points were recorded on a Kofler hot block. Proton nuclear magnetic resonance (δH) spectra were recorded on Varian Gemini 200 (at 200 MHz), Bruker WH 300 (300 MHz), or Bruker AM 500 (500 MHz) spectrometers. Carbon nuclear magnetic resonance (δC) spectra were recorded on a Varian Gemini 200 (50 MHz) or a Bruker 250 (62.9 MHz) spectrometer. Multiplicities were assigned using DEPT sequence on the Gemini and by off resonance decoupling on the Bruker. Spectra run in D2 O were referenced to methanol as an internal standard. All chemical shifts are quoted on the δ-scale. Infrared spectra were recorded on a Perkin-Elmer 297, or on a Perkin-Elmer 781 spectrophotometer. Mass spectra were recorded on VG Micromass 30F, ZAB lF, Masslab 20-250 or Trio-1 GCMS (DB-5 column) spectrometers using desorption chemical ionization (NH3 DCI), electron impact (EI), chemical ionization (NH3 CI) and fast atom bombardment (FAB) techniques, as stated. […] Concentrations were given in g/100 ml. Hydrogenations were run under an atmosphere of hydrogen gas maintained by inflated balloon. Microanalyses were performed by the microanalysis service of the DysonPerrins laboratory, Oxford UK. […]
as §2

The test system of experiment [5] is mannosidases. The settings on record: literature; cited from earlier work.
The subject of experiment [6] is glycoprotein processing mannosidase I. The settings on record: literature; cited from earlier work.
Experiment [7] has as its system α-rhamnosidase (naringinase). As to the kind of experiment: Naringinase assay with p-nitrophenyl α-L-rhamnoside. It counts as biochemical. The note with it: 1 mM compound; p-nitrophenyl α-L-rhamnoside 1.75 mM. The protocol:
as §1, §2

In experiment [8] the target is T3, bovine α-L-fucosidase (Bos taurus, UniProt Q2KIM0).
T3 sequence (Q2KIM0 23-468): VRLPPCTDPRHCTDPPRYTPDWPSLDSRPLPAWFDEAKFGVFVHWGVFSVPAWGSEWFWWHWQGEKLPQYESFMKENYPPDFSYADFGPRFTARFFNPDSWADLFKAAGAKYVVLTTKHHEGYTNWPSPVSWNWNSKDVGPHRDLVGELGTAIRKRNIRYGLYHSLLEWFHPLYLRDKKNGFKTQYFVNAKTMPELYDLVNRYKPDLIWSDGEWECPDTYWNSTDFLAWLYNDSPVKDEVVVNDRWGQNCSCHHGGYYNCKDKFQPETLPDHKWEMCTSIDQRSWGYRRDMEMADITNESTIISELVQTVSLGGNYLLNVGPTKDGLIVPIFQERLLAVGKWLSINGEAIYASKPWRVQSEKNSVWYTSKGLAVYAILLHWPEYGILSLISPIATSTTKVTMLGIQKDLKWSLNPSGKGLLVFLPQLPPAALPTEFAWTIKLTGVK
The settings on record: literature; cited from earlier work.

For experiment [9], the system named is N-acetyl-β-D-hexosaminidase. As to the kind of experiment: Human liver glycosidase assay, N-acetyl-β-D-hexosaminidase. The settings on record: 1 mM compound. The class given is biochemical. The protocol:
as §3, §2

Experiment [10] concerns the target T4, β-mannosidase (Homo sapiens, UniProt O00462).
T4 sequence (O00462 18-879): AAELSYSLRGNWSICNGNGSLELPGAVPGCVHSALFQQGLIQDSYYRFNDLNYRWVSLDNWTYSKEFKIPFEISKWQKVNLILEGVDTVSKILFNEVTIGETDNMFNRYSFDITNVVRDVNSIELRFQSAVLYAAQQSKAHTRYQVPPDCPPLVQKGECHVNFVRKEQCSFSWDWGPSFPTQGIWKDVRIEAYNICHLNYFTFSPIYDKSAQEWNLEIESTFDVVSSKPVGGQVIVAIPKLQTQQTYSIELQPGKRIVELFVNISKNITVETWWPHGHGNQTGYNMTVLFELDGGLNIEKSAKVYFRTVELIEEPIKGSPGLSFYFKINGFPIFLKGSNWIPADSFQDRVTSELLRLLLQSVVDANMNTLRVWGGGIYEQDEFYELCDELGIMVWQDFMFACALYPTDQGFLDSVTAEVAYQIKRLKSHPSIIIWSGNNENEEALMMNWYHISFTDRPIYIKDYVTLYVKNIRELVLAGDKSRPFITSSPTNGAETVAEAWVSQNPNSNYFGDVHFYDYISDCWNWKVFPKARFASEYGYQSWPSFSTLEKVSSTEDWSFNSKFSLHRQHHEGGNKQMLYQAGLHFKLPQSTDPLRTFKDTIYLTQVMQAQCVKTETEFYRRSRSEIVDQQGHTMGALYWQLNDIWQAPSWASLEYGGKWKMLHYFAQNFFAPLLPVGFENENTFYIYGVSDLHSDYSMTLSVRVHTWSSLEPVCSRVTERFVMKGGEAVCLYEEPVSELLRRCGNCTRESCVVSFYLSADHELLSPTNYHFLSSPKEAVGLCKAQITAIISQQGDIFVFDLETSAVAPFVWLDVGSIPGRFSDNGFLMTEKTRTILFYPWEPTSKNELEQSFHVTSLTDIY
The note with it: literature; cited from earlier work.

Where [11] appears, read: human liver, read-out: Ki, lysosomal α-mannosidase.

Molecules are shown by their SMILES. pIC50, pKi: −log10 of the molar value. Counter-ions that a name gives are not always drawn. Like-named read-outs stand apart in the source and are kept apart here.

In the case of `C[C@@H](O)[C@H]1NC[C@@H](O)[C@H]1O` [1,4-dideoxy-1,4-imino-6-deoxy-mannitol], the “Inhibition of human liver mannosidases (in words)” value in [1] is on record as “excellent inhibitor”. In addition, the inhibition at 1000 µM in experiment [2] (human liver) worked out at 100%; in experiment [3] (1 mM compound, human liver), 21%. Besides, the pKi in [2] (setting [11]) is 5.89. Besides, in experiment [4], the “Inhibition (%) at 1 mM, α-arabinosidase” value is listed as 91%.

As to `OC[C@@H](O)[C@H]1NC[C@@H](O)[C@H]1O` [1,4-dideoxy-1,4-iminomannitol (3), 1,4-dideoxy-1,4-iminomannitol], the inhibition at 1000 µM in experiment [2] (human liver) was found to be 89%; in [3] (1 mM compound, human liver), 24%. In addition, the pKi in experiment [2] (setting [11]) was 4.89. Further, the “Inhibition (%) at 1 mM, α-arabinosidase” value in [4] was found to be 66%. In addition, the “Inhibition of many mannosidases (in words)” value in experiment [5] was “strong”. The “Inhibition of glycoprotein processing mannosidase (in words)” value in experiment [6] is “strong”.

In turn, `C[C@H]1NC[C@@H](O)[C@@H](O)[C@@H]1O` [D-Rhamnojirimycin (5), 1,5-amino-1,5,6-trideoxy-D-mannitol hydrochloride] returned an inhibition at 1000 µM in experiment [2] (human liver) of 55%. The pIC50 in experiment [2] (human liver, read-out: I50, lysosomal α-mannosidase) is 3.00. Also, the “Inhibition (%) at 1 mM, α-rhamnosidase (naringinase)” value in experiment [7] came to 10%.

Consider `OC[C@H]1NC[C@@H](O)[C@@H](O)[C@@H]1O` [DMJ (1), deoxymannojirimycin], for which the pKi in experiment [2] is 3.12. The inhibition at 1000 µM in experiment [3] turned out to be 92%. Also, in experiment [8], the “Inhibition of bovine α-L-fucosidase (in words)” value is listed as “potent inhibitor”. Besides, the “Inhibition (%) at 1 mM, N-acetyl-β-D-hexosaminidase” value in [9] is 54%. The “Inhibition of glycoprotein processing mannosidase (in words)” value in experiment [6] is “potent inhibitor”.

In [2] (human liver), `C[C@@H]1NC[C@H](O)[C@H](O)[C@H]1O` [L-Rhamnojirimycin (7), 1,5-Imino-1,5,6-trieoxy-L-mannitoI hydrochIoride] came in with an inhibition at 1000 µM of 19%. Besides, the “Inhibition (%) at 1 mM, α-rhamnosidase (naringinase)” value in [7] is given as 0%.

For `O[C@H]1[C@H]2[C@H](O)CCCN2C[C@H]1O` [swainsonine], in [10], the “Inhibition of β-mannosidase (in words)” value is reported as “fail to inhibit”.

Broadly, the inhibition is the share of the control response that was lost under treatment. As a reminder, the pKi is the Ki on a negative log10 scale, so that one unit is a factor of ten.
